From patent publication US20160304552A1, “MODIFIED NUCLEIC ACID MOLECULES AND USES THEREOF” (MODERNA THERAPEUTICS, INC., priority 2013, published 2016)

Key:
HeLa cells [1] = assay: Transfection in HeLa cells, human GCSF modRNA (GCSF ELISA of supernatant); assay type: cell-based; conditions: Table 22, 250 ng modRNA, 18 h to 22 h
Procedure: (§1) The day before transfection, 20.000 HeLa cells (ATCC no. CCL-2; Manassas, Va.) were harvested by treatment with Trypsin-EDTA solution (LifeTechnologies, Grand Island, N.Y.) and seeded in a total volume of 100 ul EMEM medium (supplemented with 10% FCS and 1× Glutamax) per well in a 96-well cell culture plate (Corning, Manassas, Va.). The cells were grown at 37° C. in 5% CO2 atmosphere overnight. Next day, 83 ng of Luciferase modRNA or 250 ng of human GCSF modRNA, harboring chemical modifications on the bases or the ribose units, were diluted in 10 ul final volume of OPTI-MEM (LifeTechnologies, Grand Island, N.Y.). Lipofectamine 2000 (LifeTechnologies, Grand Island, N.Y.) was used as transfection reagent and 0.2 μl were diluted in 10 ul final volume of OPTI-MEM. After 5 min incubation at room temperature, both solutions were combined and incubated additional 15 min at room temperature. Then the 20 μl were added to the 100 ul cell culture medium containing the HeLa cells. The plates were then incubated as described before.
(§2) After 18 h to 22 h incubation, cell culture supernatants of cells expressing human GCSF or human EPO were collected and centrifuged at 10.000 rcf for 2 min. The cleared supernatants were transferred and analyzed with a human GCSF-specific or EPO ELISA kit (both from R&D Systems, Minneapolis, Minn.; Cat. #s SCS50, DEP00, respectively) according to the manufacturer instructions. All samples were diluted until the determined values were within the linear range of the human GCSF or EPO ELISA standard curve.

[2] = system: Rabbit Reticulocyte Lysate; assay: In vitro translation screen, human EPO modRNA (EPO ELISA); assay type: biochemical; conditions: Table 20; 250 ng modRNA, 45 min, 30° C.
Procedure: (§3) The in vitro translation assay was done with the Rabbit Reticulocyte Lysate (nuclease-treated) kit (Promega, Madison, Wis.; Cat. #L4960) according to the manufacturer's instructions. The reaction buffer was a mixture of equal amounts of the amino acid stock solutions devoid of Leucine or Methionine provided in the kit.
(§4) The modRNAs of firefly Luciferase, human GCSF and human EPO, harboring chemical modifications on either the bases or the ribose units, were diluted in sterile nuclease-free water to a final concentration of 250 ng in 2.5 ul (Stock 100 ng/μl). The modRNA (250 ng) was added to the mixture of freshly prepared Rabbit Reticulocyte Lysate and reaction buffer.
(§5) Aliquots of the in vitro translation reaction containing human GCSF modRNA or human EPO mRNA were transferred and analyzed with a human GCSF-specific or EPO ELISA kit (both from R&D Systems, Minneapolis, Minn.; Cat. #s SCS50, DEP00 respectively) according to the manufacturer instructions. All samples were diluted until the determined values were within the linear range of the human GCSF or EPO ELISA standard curve.

[3] = system: Rabbit Reticulocyte Lysate; assay: In vitro translation screen, human GCSF modRNA (GCSF ELISA); assay type: biochemical; conditions: Table 20; 250 ng modRNA, 45 min, 30° C.
Procedure: as §3, §4, §5

[4] = system: Rabbit Reticulocyte Lysate; assay: In vitro translation screen, firefly Luciferase modRNA (luciferase assay, relative light units); assay type: biochemical; conditions: Table 20; 250 ng modRNA, 45 min, 30° C.
Procedure: as §3, §4
After 45 min incubation, the reaction was stopped by placing the plate on ice. Aliquots of the in vitro translation reaction containing luciferase modRNA were transferred to white opaque polystyrene 96-well plates (Corning, Manassas, Va.; Cat. # CLS3912) and combined with 100 ul complete luciferase assay solution (Promega, Madison, Wis.). The volumes of the in vitro translation reactions were adjusted or diluted until no more than 2 million relative light units per well were detected for the strongest signal producing samples. […] The plate reader was a BioTek Synergy H1 (BioTek, Winooski, Vt.).

HeLa cells [5] = assay: Transfection in HeLa cells, human EPO modRNA (EPO ELISA of supernatant); assay type: cell-based; conditions: Table 22, 18 h to 22 h
Procedure: as §1, §2

T7 RNA polymerase = T7 RNA polymerase (Escherichia phage T7, UniProt P00573); assay: In vitro transcription yields of modified mRNA; assay type: biochemical; conditions: for EPO In Vitro Transcription yield: EPO mRNA made with the modified NTP(s); for GCSF In Vitro Transcription yield: GCSF mRNA made with the modified NTP(s); for Luc In Vitro Transcription yield: Luciferase mRNA made with the modified NTP(s)
T7 RNA polymerase, sequence (P00573 whole entry): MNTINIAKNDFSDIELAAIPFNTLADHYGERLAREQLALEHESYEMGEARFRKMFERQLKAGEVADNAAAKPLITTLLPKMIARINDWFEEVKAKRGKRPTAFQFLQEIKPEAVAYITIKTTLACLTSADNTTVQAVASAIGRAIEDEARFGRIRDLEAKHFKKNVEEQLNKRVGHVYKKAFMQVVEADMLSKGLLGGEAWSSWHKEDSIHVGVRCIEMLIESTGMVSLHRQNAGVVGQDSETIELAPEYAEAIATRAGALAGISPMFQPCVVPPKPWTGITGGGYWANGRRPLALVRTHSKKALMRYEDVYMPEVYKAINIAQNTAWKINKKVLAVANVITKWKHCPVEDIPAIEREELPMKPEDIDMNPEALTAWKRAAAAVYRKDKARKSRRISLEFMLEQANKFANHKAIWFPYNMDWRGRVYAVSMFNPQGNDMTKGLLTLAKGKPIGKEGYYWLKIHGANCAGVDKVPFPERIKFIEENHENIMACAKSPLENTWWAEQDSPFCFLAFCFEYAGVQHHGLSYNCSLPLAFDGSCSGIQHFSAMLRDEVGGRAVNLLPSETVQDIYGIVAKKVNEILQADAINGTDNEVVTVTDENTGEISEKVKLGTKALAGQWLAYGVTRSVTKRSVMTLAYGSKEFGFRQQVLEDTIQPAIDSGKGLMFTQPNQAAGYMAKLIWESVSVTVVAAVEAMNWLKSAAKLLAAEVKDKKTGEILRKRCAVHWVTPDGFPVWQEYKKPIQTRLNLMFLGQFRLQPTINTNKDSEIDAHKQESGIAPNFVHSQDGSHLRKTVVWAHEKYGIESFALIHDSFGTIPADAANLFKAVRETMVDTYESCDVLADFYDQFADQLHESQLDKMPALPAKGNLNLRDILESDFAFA
Procedure: The in vitro transcription reaction generates mRNA containing modified nucleotides or modified RNA. The input nucleotide triphosphate (NTP) mix is made in-house using natural and unnatural NTPs.
A typical in vitro transcription reaction includes the following:
Incubation at 37° C. for 3 hr-5 hrs.
The crude IVT mix may be stored at 4° C. overnight for cleanup the next day. 1 U of RNase-free DNase is then used to digest the original template. After 15 minutes of incubation at 37° C., the mRNA is purified using Ambion's […]™ Kit (Austin, Tex.) following the manufacturer's instructions. This kit can purify up to 500 μg of RNA. Following the cleanup, the RNA is quantified using the NanoDrop and analyzed by agarose gel electrophoresis to confirm the RNA is the proper size and that no degradation of the RNA has occurred.
Modified mRNAs in TE buffer (1 μl) are used for Nanodrop UV absorbance readings to quantitate the yield of each modified mRNA from an in vitro transcription reaction (UV absorbance traces are not shown).

HeLa cells [6] = assay: Transfection in HeLa cells, Luciferase modRNA (luciferase assay, relative light units); assay type: cell-based, human; conditions: Table 22, 83 ng modRNA, Lipofectamine 2000, 18 h to 22 h
Procedure: as §1
After 18 h to 22 h incubation, cells expressing luciferase were lysed with 100 μl Passive Lysis Buffer (Promega, Madison, Wis.) according to manufacturer instructions. Aliquots of the lysates were transferred to white opaque polystyrene 96-well plates (Corning, Manassas, Va.) and combined with 100 ul complete luciferase assay solution (Promega, Madison, Wis.). The lysate volumes were adjusted or diluted until no more than 2 mio relative light units per well were detected for the strongest signal producing samples. […] The plate reader was a BioTek Synergy H1 (BioTek, Winooski, Vt.).

Structure (SMILES)	GCSF Expression (HeLa cells [1])	Epo Expression [2]	GCSF Expression [3]	Luc Expression (RLUs) [4]	Epo Expression (HeLa cells [5])	EPO In Vitro Transcription yield (T7 RNA polymerase)	GCSF In Vitro Transcription yield (T7 RNA polymerase)	Luc In Vitro Transcription yield (T7 RNA polymerase)	Luc Expression (RLUs) (HeLa cells [6])
COC(=O)COc1cn([C@@H]2O[C@H](COP(=O)(O)OP(=O)(O)OP(=O)(O)O)C(O)C2O)c(=O)[nH]c1=O (stereo in doubt) [00901013004 (348), UTP-5-oxyacetic acid Me ester]	5714 pg/mL	544 pg/mL	4388 pg/mL	162 RLUs	8333 pg/mL	0.3859 mg	0.3836 mg	0.6348 mg	
Nc1nc(=O)n([C@@H]2O[C@H](COP(=O)(O)OP(=O)(O)OP(=O)(O)O)C(O)C2O)cc1C(F)(F)F (stereo in doubt) [00901014003 (351), 5-Trifluoromethyl-CTP]	1039000 pg/mL	10200 pg/mL	31510 pg/mL	23340 RLUs	668100 pg/mL	0.7886 mg	0.7710 mg	0.5097 mg	32250 RLUs
Nc1ncc2ncn([C@@H]3O[C@H](COP(=O)(O)OP(=O)(O)OP(=O)(O)O)C(O)C3O)c2n1 (stereo in doubt) [03601012004 (382), 2-Aminopurine-riboside TP]	39290 pg/mL	22180 pg/mL	8675 pg/mL	107000 RLUs	56980 pg/mL	0.0125 mg	0.2919 mg	0.0690 mg	713.50 RLUs
NC/C=C/c1cn([C@@H]2O[C@H](COP(=O)(O)OP(=O)(O)OP(=O)(O)O)C(O)C2O)c(=O)nc1N (stereo in doubt) [03601014009 (381), 5-Aminoallyl-CTP]	24290 pg/mL	169 pg/mL	1806 pg/mL	887 RLUs	3488 pg/mL	0.4943 mg	0.4567 mg	0.3471 mg	319.00 RLUs
CCn1cc([C@@H]2O[C@H](COP(=O)(O)OP(=O)(O)OP(=O)(O)O)C(O)C2O)c(=O)[nH]c1=O (stereo in doubt) [03601015003 (172), 1-Ethyl-pseudo-UTP]	209300 pg/mL	7894 pg/mL	5700 pg/mL	122 RLUs	52780 pg/mL	1.095 mg	0.5464 mg	0.6304 mg	130.50 RLUs
CCCn1cc([C@@H]2O[C@H](COP(=O)(O)OP(=O)(O)OP(=O)(O)O)C(O)C2O)c(=O)[nH]c1=O (stereo in doubt) [03601015004 (173), 1-Propyl-pseudo-UTP]	10000 pg/mL	838 pg/mL	1613 pg/mL	140 RLUs	0.00 pg/mL	0.9920 mg	0.5976 mg	0.4971 mg	
O=c1ccn([C@@H]2O[C@H](COP(=O)(O)OP(=O)(O)OP(=O)(O)O)C(O)C2O)c(=S)[nH]1 (stereo in doubt) [Compound 00901013008, 2-Thio-UTP]	214300 pg/mL	1894 pg/mL	3744 pg/mL	1181 RLUs	182600 pg/mL	0.3630 mg	0.3359 mg	0.2792 mg	423.00 RLUs
O=c1[nH]c(=O)n([C@@H]2O[C@H](COP(=O)(O)OP(=O)(O)OP(=O)(O)O)C(O)C2O)cc1Br (stereo in doubt) [Compound 00901013009, 5-Bromo-UTP]	118600 pg/mL	18220 pg/mL	21530 pg/mL	218500 RLUs	210500 pg/mL	0.2617 mg	0.3566 mg	0.3352 mg	2731 RLUs
NC/C=C/c1cn([C@@H]2O[C@H](COP(=O)(O)OP(=O)(O)OP(=O)(O)O)C(O)C2O)c(=O)[nH]c1=O (stereo in doubt) [Compound 00901013010, 5-Aminoallyl-UTP]	40710 pg/mL	1863 pg/mL	3706 pg/mL	14870 RLUs	67440 pg/mL	0.3732 mg	0.4206 mg	0.3513 mg	1946 RLUs
